PMC5209718, “Piscidin-1-analogs with double L- and D-lysine residues exhibited different conformations in lipopolysaccharide but comparable anti-endotoxin activities” (Scientific Reports, 2017)
≈ marks a conversion by molar mass, not a printed value. Like-named read-outs stand apart in the source and are kept apart here. Residues, ends and D or L forms follow the SMILES beside them.

Legend:
[1] = tested on: Staphylococcus aureus (ATCC 700699 MRSA); assay: microbe, parasite or virus in culture
Text: (§1) Piscidin-1 and its analogs were examined for bacterial growth-inhibiting activity in liquid cultures against Gram-positive bacteria including MRSA strains and Gram-negative bacteria (Table 2). […] The therapeutic index is a parameter that signify the specificity or selectivity of antimicrobial agents towards microorganisms over mammalian cells.
(§2) Antibacterial assays with all the peptides were done in 96-well microtiter plates against different Gram-positive, Gram-negative and resistant bacteria as described earlier.

[2] = tested on: Staphylococcus aureus (ATCC 33592 Gentamycin Resistant); assay: microbe, parasite or virus in culture
Text: as §1, §2

[3] = tested on: Staphylococcus aureus (ATCC 700698 MRSA); assay: microbe, parasite or virus in culture
Text: as §1, §2

[4] = tested on: Staphylococcus aureus (ATCC BAA-44 MRSA); assay: microbe, parasite or virus in culture
Text: as §1, §2

[5] = tested on: Staphylococcus aureus (ATCC 1708 MRSA); assay: microbe, parasite or virus in culture
Text: as §1, §2

[6] = tested on: E. coli (ATCC 25922); assay: Antibacterial activity (MIC), liquid culture in 96-well microtiter plates; assay type: cell-based; conditions: read-out: Minimum inhibitory conc. (MIC) against bacteria 11
Text: as §1, §2

[7] = tested on: Staphylococcus aureus (ATCC 25923); assay: microbe, parasite or virus in culture; assay type: cell-based; conditions: for MIC: Staphylococcus aureus (ATCC 25923), means of three independent experiments each in duplicate ± SD, read-out: Minimum inhibitory conc. (MIC) against bacteria 1; for Minimum inhibitory conc. (MIC) against bacteria 1: ATCC 25923
Text: as §1, §2

[8] = tested on: Staphylococcus aureus (ATCC 29213); assay: microbe, parasite or virus in culture; assay type: cell-based; conditions: for MIC: Staphylococcus aureus (ATCC 29213), means of three independent experiments each in duplicate ± SD, read-out: Minimum inhibitory conc. (MIC) against bacteria 2; for Minimum inhibitory conc. (MIC) against bacteria 2: ATCC 29213
Text: as §1, §2

[9] = tested on: K. pneumoniae (ATCC 27736); assay: microbe, parasite or virus in culture; assay type: cell-based; conditions: for MIC: K. pneumoniae (ATCC 27736), means of three independent experiments each in duplicate ± SD, read-out: Minimum inhibitory conc. (MIC) against bacteria 10; for Minimum inhibitory conc. (MIC) against bacteria 10: ATCC 27736
Text: as §1, §2

[10] = tested on: B. subtilis (ATCC 6633); assay: microbe, parasite or virus in culture; assay type: cell-based; conditions: for MIC: B. subtilis (ATCC 6633), means of three independent experiments each in duplicate ± SD, read-out: Minimum inhibitory conc. (MIC) against bacteria 9; for Minimum inhibitory conc. (MIC) against bacteria 9: ATCC 6633
Text: as §1, §2

[11] = tested on: P. aeruginosa (ATCC BAA-427); assay: microbe, parasite or virus in culture; assay type: cell-based; conditions: for MIC: P. aeruginosa (ATCC BAA-427), means of three independent experiments each in duplicate ± SD, read-out: Minimum inhibitory conc. (MIC) against bacteria 8; for Minimum inhibitory conc. (MIC) against bacteria 8: ATCC BAA-427
Text: as §1, §2

[12] = tested on: human red blood cells (hRBCs); assay type: cell-based
Text: Cytotoxic activity of piscidin-1 and its designed analogs was examined by assaying the lysis of human red blood cells (hRBCs) and the viability of murine 3T3 cells in presence of these peptides. […] Introduction of D-lysine (dK)residues instead of threonine residues at 15th & 21st positions further reduced the haemolytic activity of piscidin-1 (Fig. 1A). Overall, haemolytic activity of these peptides against hRBCs followed the order piscidin-1 > T15K-piscidin-1 > T15dK-piscidin-1 > T15,21K-piscidin-1 > T15,21dK-piscidin-1. Viability of 3T3 cells as determined by MTT assay in the presence of these peptides followed the same trend as their haemolytic activity (Fig. 1B).
Haemolytic activity of the peptides against human red blood cells in PBS was performed by assaying the ability of the peptides to lyse the hRBCs[24][48]. For this purpose, fresh human red blood cells (hRBCs) were collected in the presence of an anti-coagulant from a healthy volunteer. After washing the blood three times with PBS haemolytic activity of the peptides were determined as reported previously. Methodology of our experiment with human blood was in accordance with relevant guidelines and regulations of CSIR-central drug research institute ethics committee and was approved by it with approval No. CDRI/IEC/2014/A5. Further, informed consent was obtained from the healthy volunteer before collection of blood as per the guideline of our Institutional ethics committee.

[13] = tested on: hRBCs; assay: Localization of NBD-labelled peptides onto hRBCs by confocal microscopy, quantitative fluorescence; assay type: cell-based, human; conditions: NBD-labelled peptides ~10.0 μM, at least 25 cells analysed
Text: Figure 3 Confocal laser scanning microscopy to look into the localization of piscidin-1 and its selected analogs onto E. coli and hRBCs. […] Fluorescence and DIC images for treatment of different cells with each of the peptides are shown as marked on top of the respective panel. Panels (C) and (D) show the quantitative analysis of fluorescence intensity of E. coli and hRBCsbound to NBD-labeled piscidin-1, T15,21K-piscidin-1 and T15,21dK-piscidin-1 respectively.
The localization of NBD-labeled piscidin-1, T15,21K-piscidin-1 and T15,21dK-piscidin-1 was also studied onto hRBCs by confocal microscopy. […] Quantitative analyses of the confocal microscopic fluorescence images were carried out. At least 25 cells from fluorescence images for each set of experiments were included in the analysis. The results are shown at the bottom of the fluorescence images of the respective cells (Fig. 3C and D).

[14] = tested on: E. coli 0111:B4 LPS-administered mice; assay: In vivo anti-LPS activity: survival of LPS-administered mice (septic shock); conditions: single dose 1.0 mg/kg i.p. after LPS 12 mg/kg; BALB/c mice; monitored 7 days
Method: Septic shock in BALB/c mice was induced by intraperitoneal (i.p.) injection of E. coli LPS (12 mg/kg) followed by i.p. injection of T15,21K-piscidin-1 (0.5 mg/Kg) or T15,21dK-piscidin-1 (1 mg/Kg) or polymyxin B (1 mg/Kg) ~5 min later. Mice treated with only saline was taken as control. Survival of the animals (n = 5) was monitored for 7 days (***p < 0.0001, log-rank test).
Polymyxin B was taken as the positive control and the experiments were performed as reported earlier[14][30][31].
In vivo studies, treat ment of Mice
Female BALB/c mice (National laboratory animal centre, central drug research institute,
Lucknow) we re given a s tandard laborato r y diet an d water ad libitum and housed under controlled
environmental conditions. The mice wer e approx imatel y 25 g each at the st art of experiments. All
the mice were divided into experimental groups for the administration of LPS and peptides. Mice
were treated with 12 m g/ kg E. coli 0111: B4 LPS i n presen ce and in absen ce of peptide in different
experimental groups. The mice treated with saline onl y, in absence of LP S were considered as
experimental controls. To study the efficacy of a peptide in neutralizing LPS-induced pro-
inflammatory responses in mice ~5 min post LPS treatment, the respective peptide was
administered i.p. at a site other than the one, used for LPS injection. […] Survival of mice was
monitored for 7 da ys. Survival of mice was also mo nitored following th e treatment of onl y p eptides
for investigating their toxic effects.

[15] = means of three independent experiments each in duplicate ± SD
[16] = Staphylococcus aureus (ATCC 700699 MRSA), means of three independent experiments each in duplicate ± SD
[17] = Staphylococcus aureus (ATCC 33592 Gentamycin Resistant), means of three independent experiments each in duplicate ± SD
[18] = Staphylococcus aureus (ATCC 700698 MRSA), means of three independent experiments each in duplicate ± SD
[19] = Staphylococcus aureus (ATCC BAA-44 MRSA), means of three independent experiments each in duplicate ± SD
[20] = Staphylococcus aureus (ATCC 1708 MRSA), means of three independent experiments each in duplicate ± SD

## CCn1cc(C(=O)O)c(=O)c2cc(F)c(N3CCNCC3)cc21 [Norfloxacin, reference compound]
[1]; Staphylococcus aureus, ATCC700699|MRSA, read-out: Minimum inhibitory conc. (MIC) against bacteria 3
  MIC: > 150 µM
[2]; Staphylococcus aureus, ATCC33592, read-out: Minimum inhibitory conc. (MIC) against bacteria 4
  MIC: 2.44 µM (≈ 0.779 µg/mL)
[3]; Staphylococcus aureus, ATCC700698|MRSA, read-out: Minimum inhibitory conc. (MIC) against bacteria 6
  MIC: > 150 µM
[4]; Staphylococcus aureus, ATCCBAA44|MRSA, read-out: Minimum inhibitory conc. (MIC) against bacteria 5
  MIC: 39 µM (≈ 12.5 µg/mL)
[5]; Staphylococcus aureus, ATCC1708|MRSA, read-out: Minimum inhibitory conc. (MIC) against bacteria 7
  MIC: > 150 µM
[6]; Escherichia coli, ATCC25922, means of three independent experiments each in duplicate ± SD
  MIC: 0.125 µM (≈ 0.0399 µg/mL)
[7]; ATCC25923
  MIC: 1.22 µM (≈ 0.39 µg/mL)
[8]; ATCC29213
  MIC: 2.44 µM (≈ 0.779 µg/mL)
[9]; Klebsiella pneumoniae, ATCC27736
  MIC: 0.125 µM (≈ 0.0399 µg/mL)
[10]; Bacillus subtilis, ATCC6633
  MIC: 0.39 µM (≈ 0.125 µg/mL)
[11]; Pseudomonas aeruginosa, ATCCBAA427
  MIC: 2.19 µM (≈ 0.699 µg/mL)

## CC[C@H](C)[C@H](NC(=O)CNC(=O)[C@H](CCCNC(=N)N)NC(=O)[C@H](Cc1ccccc1)NC(=O)[C@@H](NC(=O)[C@H](Cc1c[nH]cn1)NC(=O)[C@H](Cc1c[nH]cn1)NC(=O)[C@H](Cc1ccccc1)NC(=O)[C@@H](N)Cc1ccccc1)[C@@H](C)CC)C(=O)N[C@H](C(=O)N[C@@H](Cc1c[nH]cn1)C(=O)N[C@H](C(=O)NCC(=O)N[C@@H](CCCCN)C(=O)N[C@H](CCCCN)C(=O)N[C@H](C(=O)N[C@@H](Cc1c[nH]cn1)C(=O)N[C@@H](CCCNC(=N)N)C(=O)N[C@@H](CC(C)C)C(=O)N[C@H](C(=O)N[C@H](C(=O)NCC(N)=O)[C@@H](C)O)C(C)C)[C@@H](C)CC)C(C)C)C(C)C [T15dK Piscidin-1] (HELM PEPTIDE1{F.F.H.H.I.F.R.G.I.V.H.V.G.K.[dK].I.H.R.L.V.T.G.[am]}$$$$V2.0)
[1]; ATCC 700699
  Minimum inhibitory conc. (MIC) against bacteria 3: 10.0 ± 1.4 µM (≈ 26 µg/mL)
[2]; ATCC 33592
  Minimum inhibitory conc. (MIC) against bacteria 4: 2.5 ± 0.4 µM (≈ 6.5 µg/mL)
[3]; ATCC 700698
  Minimum inhibitory conc. (MIC) against bacteria 6: 5.0 ± 0.7 µM (≈ 13 µg/mL)
[4]; ATCC BAA-44
  Minimum inhibitory conc. (MIC) against bacteria 5: 2.5 ± 0.4 µM (≈ 6.5 µg/mL)
[5]; ATCC 1708
  Minimum inhibitory conc. (MIC) against bacteria 7: 2.5 ± 0.4 µM (≈ 6.5 µg/mL)
[12]
  HC50, peptide concentration leading to 50% lysis of human RBC: 125 µM
[6]; [15]
  MIC: 4.0 µM (≈ 10.4 µg/mL)
[7]
  Minimum inhibitory conc. (MIC) against bacteria 1: 2.5 ± 0.4 µM (≈ 6.5 µg/mL)
[8]
  Minimum inhibitory conc. (MIC) against bacteria 2: 2.5 ± 0.4 µM (≈ 6.5 µg/mL)
[9]
  Minimum inhibitory conc. (MIC) against bacteria 10: 3.6 ± 0.5 µM (≈ 9.35 µg/mL)
[10]
  Minimum inhibitory conc. (MIC) against bacteria 9: 9.0 ± 1.3 µM (≈ 23.4 µg/mL)
[11]
  Minimum inhibitory conc. (MIC) against bacteria 8: 7.5 ± 1.0 µM (≈ 19.5 µg/mL)

## Gentamycin [reference compound]
[1]; [16]
  Minimum inhibitory conc. (MIC) against bacteria 3: >100 µM
[2]; [17]
  Minimum inhibitory conc. (MIC) against bacteria 4: >100 µM
[3]; [18]
  Minimum inhibitory conc. (MIC) against bacteria 6: >100 µM
[4]; [19]
  Minimum inhibitory conc. (MIC) against bacteria 5: >50 µM
[5]; [20]
  Minimum inhibitory conc. (MIC) against bacteria 7: 3.2 µM
[6]; [15]
  MIC: 3.14 µM
[7]
  MIC: 0.8 µM
[8]
  MIC: 1.6 µM
[9]
  MIC: 3.26 µM
[10]
  MIC: 0.048 µM
[11]
  MIC: 1.46 µM

## H-FFHHIFRGIVHVGKKIHRLVTG-NH2 [T15K Piscidin-1]
[1]; [16]
  Minimum inhibitory conc. (MIC) against bacteria 3: 2.5 ± 0.4 µM
[2]; [17]
  Minimum inhibitory conc. (MIC) against bacteria 4: 1.25 ± 0.3 µM
[3]; [18]
  Minimum inhibitory conc. (MIC) against bacteria 6: 2.5 ± 0.4 µM
[4]; [19]
  Minimum inhibitory conc. (MIC) against bacteria 5: 1.25 ± 0.3 µM
[5]; [20]
  Minimum inhibitory conc. (MIC) against bacteria 7: 2.5 ± 0.4 µM
[12]
  HC50, peptide concentration leading to 50% lysis of human RBC: 46 µM
[6]; [15]
  MIC: 3.5 µM
[7]
  Minimum inhibitory conc. (MIC) against bacteria 1: 1.25 ± 0.3 µM
[8]
  Minimum inhibitory conc. (MIC) against bacteria 2: 2.5 ± 0.4 µM
[9]
  Minimum inhibitory conc. (MIC) against bacteria 10: 3.2 ± 0.4 µM
[10]
  Minimum inhibitory conc. (MIC) against bacteria 9: 8.5 ± 1.2 µM
[11]
  Minimum inhibitory conc. (MIC) against bacteria 8: 7.0 ± 1.0 µM

## H-FFHHIFRGIVHVGKTIHRLVTG-NH2 [Piscidin-1]
[1]; ATCC 700699
  Minimum inhibitory conc. (MIC) against bacteria 3: 5.0 ± 0.7 µM
[2]; ATCC 33592
  Minimum inhibitory conc. (MIC) against bacteria 4: 2.5 ± 0.4 µM
[3]; ATCC 700698
  Minimum inhibitory conc. (MIC) against bacteria 6: 2.5 ± 0.4 µM
[4]; ATCC BAA-44
  Minimum inhibitory conc. (MIC) against bacteria 5: 2.5 ± 0.4 µM
[5]; ATCC 1708
  Minimum inhibitory conc. (MIC) against bacteria 7: 2.5 ± 0.4 µM
[12]
  HC50, peptide concentration leading to 50% lysis of human RBC: 15 µM
[6]; [15]
  MIC: 3.0 µM
[7]
  Minimum inhibitory conc. (MIC) against bacteria 1: 1.25 ± 0.3 µM
[8]
  Minimum inhibitory conc. (MIC) against bacteria 2: 2.5 ± 0.4 µM
[9]
  Minimum inhibitory conc. (MIC) against bacteria 10: 3.8 ± 0.5 µM
[10]
  Minimum inhibitory conc. (MIC) against bacteria 9: 8.0 ± 1.0 µM
[11]
  Minimum inhibitory conc. (MIC) against bacteria 8: 6.0 ± 0.7 µM

## X-FFHHIFRGIVHVGKKIHRLVKG–amide [NBD-T15,21K-piscidin-1, T15,21K-piscidin-1 labelled at its N-terminus by NBD]
[13]
  fold lower fluorescence of hRBCs bound to peptide than cells bound to NBD-labeled piscidin-1: about 5 fold

## X-FFHHIFRGIVHVGKkIHRLVkG–amide [NBD-T15,21dK-piscidin-1, T15,21dK-piscidin-1 labelled at its N-terminus by NBD]
[13]
  fold lower fluorescence of hRBCs bound to peptide than cells bound to NBD-labeled piscidin-1: ~7.5 fold

## polymyxin B [reference compound]
[14]
  mortality rate of LPS-administered mice: zero
